For data set [1], the system named is SNU387. The experiment in a line: Cell proliferation assay (Alamar Blue). In kind it is cell-based. To be noted: Homo sapiens, SNU-387, 144 h; SNU387 liver cancer cell line; 6 days. In a few lines:
(§1)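 Cells seeded at 500–1×10^4/well, allowed 4 h at 37 °C, 5% CO2, then given 9-point compound series (3.16-fold from 30 or 100 μM top). After 6 days, AlamarBlue added 1–4 h and fluorescence read (ex 560/em 590 nm); IC50 from four-parameter nonlinear regression of inhibition versus 0% and 100% controls.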
In general terms: Resazurin is reduced to fluorescent resorufin, in cell work by metabolically active cells.

The test system of data set [2] is HLE. Kind of data set: Cell proliferation assay (Alamar Blue). In kind it is cell-based. To be noted: Homo sapiens, 144 h; HLE liver cancer cell line; 6 days. In a few lines: as §1
The subject of data set [3] is LC-2-ad. Kind of data set: Cell proliferation assay (Alamar Blue). In kind it is cell-based. The conditions noted are these: Homo sapiens, 144 h; LC-2-ad tumor cell line; 6 days. In a few lines:
as §1

Data set [4] has as its system HLF. The experiment in a line: Cell proliferation assay (Alamar Blue). In kind it is cell-based. To be noted: 144 h; HLF liver cancer cell line; 6 days. In a few lines: as §1
In data set [5] the test system is KASUMI-1. The experiment in a line: Cell proliferation assay (Alamar Blue). The format is cell-based. The conditions noted are these: KASUMI-1 (leukemia cells); for IC50: Homo sapiens, 144 h, 6 days. In a few lines: as §1
Data set [6] deals with SNU449. Kind of data set: Cell proliferation assay (Alamar Blue). The format is cell-based. The conditions noted are these: Homo sapiens, SNU-449, 144 h; SNU449 liver cancer cell line; 6 days. In a few lines:
as §1

Data set [7] deals with SW620. The experiment in a line: Cell proliferation assay (Alamar Blue). In kind it is cell-based. The conditions noted are these: Homo sapiens, SW-620, 144 h; SW620 tumor cell line; 6 days. In a few lines:
as §1

The nature of data set [8]: Plasma incubation stability study. The format is in vitro ADME, SD rat. To be noted: for Residual intermediate: rat plasma, 37° C., 2 μg/mL added, listed as intermediate. How it is done: The purpose of this example was to investigate the stability of the precursor Linifanib-C12-AA5 (compound 8) and the intermediate Linifanib-C12-Asp (compound 12) in plasma, liver homogenate and spleen homogenate (precursor Linifanib-C12-AA5 metabolizes into the intermediates Linifanib-C12-Asp and Linifanib; the intermediate Linifanib-C12-Asp is further metabolized to form Linifanib), and the metabolites were analyzed quantitatively, and the stability of the incubation system was verified with positive drugs, providing references for compound drug evaluation.
• Instrument: AP13000 LC/MS, ABI • Materials: Male SD rats (200-250 g), Beijing Vital River • Test samples: positive drugs and their metabolites M1 and M2, Linifanib-C12-AA5 and its metabolites Linifanib-C12-ASP and Linifanib. 2. Stability study of Linifanib-C12-AA5 and Linifanib-C12-Asp • 2.1 Linifanib-C12-AA5 and Linifanib-C12-Asp plasma incubation stability study protocol Test animal • Type: SD rat; Quantity: 2 • Sex: male; weight: 200-250 g;
Experimental Procedure • 1. Animal blood was collected, blood samples were placed in EDTA anticoagulation tubes, centrifuged at 3000 g for 15 min at 4° C., plasma was separated, and 2 blood samples were mixed in equal volumes; • 2. Weighed and dissolved a certain amount of Linifanib-C12-AA5/Linifanib-C12-Asp in DMSO:MeOH (2:8), prepared 200 μM mother liquor by purity, and added the compound to the plasma to a final concentration of 2 μg/mL. The organic ratio in the system was not more than 0.5%. • 3. Incubated in a 37° C. water bath and set the sampling points to 0, 0.5, 1, 2, 4, 6, and 8 h. At each sampling point, 100 μL of each sample was added to 300 μL of acetonitrile (with internal standard) for precipitation, centrifuged at 12,000 rpm for 5 min, and 200 μL of supernatant was taken for analysis by LC-MS/MS. • 4. Configured the standard curve to quantify Linifanib, Linifanib-C12-Asp and residual Linifanib-C12-AA5. • 2.2 Linifanib-C12-AA5 and Linifanib-C12-Asp liver/spleen homogenate incubation stability study protocol Test animal • Type: SD rat; Quantity: 2 • Sex: Male; Weight: 200-250 g

Where [9] appears, read: rat plasma incubation up to 8 h.

Each structure is given as a SMILES string. Several values for one entry are separate records, joined by “and”; a condition that tells them apart may be missing. Equal entries are not always repeated. Entries after “also recorded” stand apart in the source; their conditions may differ. Bounds are passed on as bounds.

With `Cc1ccc(F)c(NC(=O)Nc2ccc(-c3cccc4c3c(N)nn4C(=O)CCCCCCCCCCCNC(=O)C[C@H](N)C(=O)N[C@@H](CCC(=O)N[C@@H](CCC(=O)N[C@@H](CCC(=O)N[C@@H](CCC(=O)N[C@@H](CCC(=O)N[C@@H](CCC(=O)N[C@@H](CCC(=O)N[C@@H](CCC(=O)N[C@@H](CCC(=O)O)C(=O)O)C(=O)O)C(=O)O)C(=O)O)C(=O)O)C(=O)O)C(=O)O)C(=O)O)C(=O)O)cc2)c1` [Compound 9], the IC50 (commonly the point on the concentration scale where inhibition reaches its midpoint) in data set [1] is > 100 µM; in data set [2], 53.3 µM; in data set [3], 70.5 µM; in data set [4], 63.4 µM; in data set [5], 0.23 µM; in data set [6], 90 µM. The same compound displayed an IC50 in data set [7] of 66.7 µM.
Turning to `Cc1ccc(F)c(NC(=O)Nc2ccc(-c3cccc4c3c(N)nn4C(=O)CCCCCNC(=O)C[C@H](N)C(=O)N[C@@H](CCC(=O)N[C@@H](CCC(=O)N[C@@H](CCC(=O)N[C@@H](CCC(=O)N[C@@H](CCC(=O)N[C@@H](CCC(=O)N[C@@H](CCC(=O)N[C@@H](CCC(=O)N[C@@H](CCC(=O)O)C(=O)O)C(=O)O)C(=O)O)C(=O)O)C(=O)O)C(=O)O)C(=O)O)C(=O)O)C(=O)O)cc2)c1` [Compound 6], the IC50 was > 100 µM in data set [1]; 68.9 µM in data set [2]; 67.8 µM in data set [3]; 82.1 µM in data set [4]; 4.94 µM in data set [5]; > 100 µM in data set [6]. Moreover, the IC50 in data set [7] was > 100 µM.
With `Cc1ccc(F)c(NC(=O)Nc2ccc(-c3cccc4c3c(N)nn4C(=O)CCCCCNC(=O)C[C@H](N)C(=O)N[C@@H](CCC(=O)O)C(=O)O)cc2)c1` [Compound 4], the IC50 in data set [1] was > 100 µM; in data set [2] it was 47.5 µM; in data set [3] it was 36.9 µM; in data set [4] it was 52.6 µM; in data set [5], 1.71 µM; in data set [6] it was > 100 µM. The same compound returned an IC50 in data set [7] of 71.4 µM.
As for `Cc1ccc(F)c(NC(=O)Nc2ccc(-c3cccc4c3c(N)nn4C(=O)CCCCCNC(=O)C[C@H](N)C(=O)O)cc2)c1` [Compound 11], the IC50 was > 100 µM in data set [1]; 55.2 µM in data set [2]; 27.5 µM in data set [3]; 49.4 µM in data set [4]; 1.21 µM in data set [5]; > 100 µM in data set [6]. In data set [7], this compound showed an IC50 of 60.3 µM.
As to `Cc1ccc(F)c(NC(=O)Nc2ccc(-c3cccc4c3c(N)nn4C(=O)CCCCCCCCCCCNC(=O)C[C@H](N)C(=O)N[C@@H](CCC(=O)O)C(=O)O)cc2)c1` [Compound 7], the IC50 in data set [1] was > 100 µM; in data set [2] it was 36.3 µM; in data set [3], 54.3 µM; in data set [4] it was 24.4 µM; in data set [5], 0.096 µM; in data set [6], 31.6 µM. For the same compound, in data set [7], half-maximal inhibition (IC50) required 21.9 µM.
For `Cc1ccc(F)c(NC(=O)Nc2ccc(-c3cccc4c3c(N)nn4C(=O)CCCCCCCCCCCNC(=O)C[C@H](N)C(=O)N[C@@H](CCC(=O)N[C@@H](CCC(=O)N[C@@H](CCC(=O)N[C@@H](CCC(=O)O)C(=O)O)C(=O)O)C(=O)O)C(=O)O)cc2)c1` [Compound 8], the “production of the intermediates Linifanib-C12-Asp and Linifanib in plasma” value in data set [8] (setting [9]) is recorded as “did not produce”. Further, the stability in plasma entry in data set [8] (setting [9]) was “stable in plasma”. The IC50 came out at 90.2 µM in data set [1]; 36.8 µM in data set [2]; 50.2 µM in data set [3]; 44.6 µM in data set [4]; 0.1 µM in data set [5]; 60.3 µM in data set [6]. This compound also came in with an IC50 in data set [7] of 44.5 µM. For the same compound, the “difference of IC50 value versus Linifanib” value in data set [5] came to 10 times.
Regarding `Cc1ccc(F)c(NC(=O)Nc2ccc(-c3cccc4c3c(N)nn4C(=O)CCCCCCCCCCCNC(=O)C[C@H](N)C(=O)O)cc2)c1` [Compound 12], the “level of Linifanib produced in plasma” value in data set [8] (setting [9]) was “close to zero”. Moreover, in data set [8] (rat plasma incubation up to 8 h, listed as Linifanib-C12-Asp), the stability in plasma entry is on record as “stably incubated in plasma; also recorded: stable in plasma”. Also, the Residual intermediate in data set [8] (0 h) is 1900 ng/mL and 2180 ng/mL; in data set [8] (0.5 h), 2100 ng/mL and 2290 ng/mL; in data set [8] (1 h), 2180 ng/mL and 2290 ng/mL; in data set [8] (2 h), 2160 ng/mL and 2110 ng/mL; in data set [8] (4 h) it was 2210 ng/mL and 2270 ng/mL; in data set [8] (6 h) it was 2070 ng/mL and 1880 ng/mL. Besides, the Residual intermediate in data set [8] (8 h) is 1940 ng/mL and 2060 ng/mL. The IC50 in data set [1] was 30.3 µM; in data set [2] it was > 30 µM; in data set [3], > 30 µM; in data set [4], > 30 µM; in data set [5], 0.05 µM; in data set [6], > 30 µM. In addition, in data set [7], the IC50 is > 30 µM.
On to `Cc1ccc(F)c(NC(=O)Nc2ccc(-c3cccc4c3c(N)nn4C(=O)CCCCCNC(=O)C[C@H](N)C(=O)N[C@@H](CCC(=O)N[C@@H](CCC(=O)N[C@@H](CCC(=O)N[C@@H](CCC(=O)O)C(=O)O)C(=O)O)C(=O)O)C(=O)O)cc2)c1` [Compound 5], for which the IC50 was > 100 µM in data set [1]; 53.4 µM in data set [2]; 51.3 µM in data set [3]; 63.9 µM in data set [4]; 3.21 µM in data set [5]; > 100 µM in data set [6]. Moreover, the IC50 in data set [7] is > 100 µM.
On to `Cc1ccc(F)c(NC(=O)Nc2ccc(-c3cccc4[nH]nc(N)c34)cc2)c1` [Linifanib, reference compound], for which the IC50 in data set [1] turned out to be 12.3 µM; in data set [2], 3.93 µM; in data set [3], 4.78 µM; in data set [4] it was 3.65 µM; in data set [5] it was 0.01 µM; in data set [6] it was 10.2 µM. Further, the IC50 in data set [7] came to 2.78 µM.

The record behind these values is patent US11351151B2, “Compound having anticancer activity and preparation method and application” (3D Medicines (Beijing) Co., Ltd., priority 2016, dated 2022).
